Reference: patent US20170121683A1, “ARYL HYDROCARBON RECEPTOR DISRUPTION AND ENHANCEMENT” (priority 2015, published 2017)

Legend:
Format in all cases: cell-based, human
[1] = tested on: H9 hESCs; assay: NK cell differentiation from hESCs, flow cytometry (Example 1); settings: 1 μM SR-1 or 10 nM TCDD in NK cell differentiation conditions, n=2
Description: H9 hESCs were differentiated as spin EB exposed to Stage I mesodermal induction media for 11 days and transferred to NK-cell differentiation media with either DMSO, 1 μM SR-1, or 10 nM TCDD treatment for an additional 14 and 21 days. At the indicated time points, non-adherent cells were harvested and analyzed for NK-cell immunophenotype (CD56^+CD45^+) by flow cytometry. Representative flow cytometry plots are shown from two biologically independent experiments.
H9 hESCs were differentiated into NK cells as previously described (Ni et al. Embryonic Stem Cell Immunobiol. Methods Protoc. Methods Mol. Biol. 1029, 33-41 (2013)). In brief, H9 hESCs were aggregated as spin-EBs and differentiated in Stage I mesodermal induction media for 11 days, with one-half media change with fresh cytokines on Day 6. […]
Harvested cells were incubated with PE-Cy7 CD34 (BD Biosciences, San Jose, Calif.) in conjunction with APC CD31, APC CD41a, APC CD43, or APC CD45 for 30 minutes at 4° C. in FACS buffer (DPBS containing 2% fetal bovine serum and 0.1% sodium azide). […] Cells were analyzed using an LSRII flow cytometer (BD Biosciences) and data were analyzed using FlowJo software (TreeStart, Ashland, Oreg.).

[2] = tested on: hESCs (H9); assay: Hemato-endothelial differentiation of hESCs, flow cytometry, fold change vs DMSO (Example 2)
Description: FIG. 7A. Schema of hESC differentiation into early hemato-endothelial cells as spin-embryoid bodies (spin-EBs). hESCs are made into spin-EBs at Day 0 and conditioned into mesoderm lineages for 6 days using defined cytokines (Stage 1). At Day 6, spin-EBs are transferred into hemato-endothelial culture media (Stage 2) to promote endothelial and hematopoietic cell differentiation. For these studies, cells are treated with either 1 μM SR-1, 10 nM TCDD, or DMSO vehicle control beginning at Day 6+0 with media exchanges and/or harvesting performed at Day 6+3, Day 6+6, and Day 6+9. FIG. 7B. Representative flow cytometry plots of one hESCs differentiation. Both adherent and non-adherent cell fractions are harvested at Day 6+3, Day 6+6, and Day 6+9 and assessed for endothelial cell (CD34^+CD31^+, CD34^+CD144^+) and hematopoietic progenitor cell (CD34^+CD43^+, CD34^+CD45^+) phenotypes. FIG. 7C. Fold change of the total percentage of each hemato-endothelial phenotype for SR-1 and TCDD treated hESCs normalized to matched DMSO treated controls. n=4-6, error bars represent SEM, *p<0.05 as compared to DMSO treated controls by student's t-test. N/A: Not applicable due to absence appreciable of CD34^+CD45^+ populations at Day 6+3 time point.
Single-cell adapted hESCs (H9) were maintained on irradiated mouse embryonic fibroblasts (MEF) in ES growth media, as previously described in Ferrell et al. Stem Cells. 2015; 33(4):1130-41. hESCs were allowed to differentiate as spin-embryoid bodies (EBs) as previously described in Ferrell et al. and Ng et al. Nat. Protoc. 2008; 3(5):768-776 (FIG. 7A). In brief, hESCs were plated at 3,000 cells/100 μL in a round-bottom 96-well plate using serum-free BPEL media supplemented with 20 ng/mL BMP4, 40 ng/mL SCF, and 20 ng/mL VEGF (all R&D Systems, Minneapolis, Minn.). Cells were centrifuged to form embryoid bodies (defined as Day 0) and were incubated for 6 additional days (defined as Day 6) to promote mesoderm induction. To differentiate early endothelial and hematopoietic progenitor cells, Day 6 EBs were transferred to pre-gelatinized 24-well plates (approx. 8-16 EBs/well) with BEL media supplemented with 40 ng/mL SCF, 40 ng/mL VEGF, […] thrombopoietin (all R&D Systems, Minneapolis, Minn.), 30 ng/mL IL-3, and 30 ng/mL IL-6 (both PeproTech, Rocky Hill, N.J.). To modulate AHR activity, EBs were treated at Day 6+0 with DMSO, 1 μM SR-1 (Cellagen Technologies, San Diego, Calif.), or 10 nM 2,3,7,8-tetrachlorodibenzo-p-dioxin (TCDD) (Sigma-Aldrich, St. Louis, Mo.). Media was exchanged every 3 days with small molecule and cytokine supplementation. At indicated time points, non-adherent cell fractions were collected and saved while the remaining adherent fractions were treated with 0.05% trypsin containing 2% chicken serum. Adherent cells were combined with the non-adherent fractions for analysis, unless otherwise stated.
The following additional antibodies were used (all anti-human): LFA-1 (CD11a/CD18)-APC-R700 (BD Biosciences), CD31-APC (eBioscience), CD33-APC (BD Biosciences), CD34-PECy7 (BD Biosciences), CD34-APC (BD Biosciences), CD41a-APC (BD Biosciences), CD43-APC (BD Biosciences), CD45-APC (BD Biosciences), CD56-PECy7 (BD Biosciences), CD56-BV421 (BD Biosciences), CD94-PerCP-Cy5.5 (BD Biosciences), CD117-PECy7 (BD Biosciences), CD117-APC (eBiosciences), CD144-APC (eBioscience). Samples were analyzed on either an LSRFortessa or LSRII flow cytometer (BD Biosciences). Gating was set relative to isotype controls of identical fluorophores. Data from flow cytometry was analyzed using FlowJo software (Treestar, Ashland, Oreg.).

[3] = tested on: hESC-derived NK cells; assay: CD107a degranulation assay with K562 target cells; settings: Day 11+28, K562 targets at 2:1 effector:target ratio, 4 hours

Row | SMILES | CD56+CD45+ NK cells [1] [%] | CD34+CD45+ hematopoietic progenitor cells, fold change normalized to DMSO ([2]; Day 6+9, 10 nM TCDD) | total percent of CD34+CD31+ cells, fold change normalized to DMSO ([2]; Day 6+9, 10 nM TCDD) | total percent of CD34+CD43+ cells, fold change normalized to DMSO ([2]; Day 6+9, 10 nM TCDD) | total percent of CD34+CD144+ cells, fold change normalized to DMSO ([2]; Day 6+9, 10 nM TCDD) | total percent of CD34− hematopoietic cells ([2]; Day 6+9, 10 nM TCDD) | CD107a expression (percentage of CD107a+ cells) [3] [%] | total percentage of CD34+CD31+ cells, fold vs DMSO controls ([2]; Day 6+3, 1 μM SR-1) [fold] | total percentage of CD34+CD144+ cells, fold vs DMSO controls ([2]; Day 6+3, 1 μM SR-1) [fold] | total percentage of CD34+CD31+ hemato-endothelial cells, fold vs DMSO controls ([2]; Day 6+6, 1 μM SR-1) [fold] | total percentage of CD34+CD43+ hematopoietic progenitor cells, fold vs DMSO controls ([2]; Day 6+6, 1 μM SR-1) [fold]
1 | Clc1cc2c(cc1Cl)Oc1cc(Cl)c(Cl)cc1O2 [TCDD, 2,3,7,8-tetrachlorodibenzo-p-dioxin] | 6.7 | 0.44±0.06 | 0.49±0.06 | 0.67±0.09 | 0.33±0.13 | increase | 36.8±2.1 | – | – | – | –
2 | CC(C)n1cnc2c(NCCc3ccc(O)cc3)nc(-c3csc4ccccc34)nc21 [SR-1, StemReginin-1] | 26.4 | 1.40±0.11 | – | – | – | – | 58.1±0.67 | 1.58±0.28 | 1.71±0.22 | 1.62±0.12 | 1.36±0.12
